Assay results taken from article PMC6628648, “Enabling microbial syringol conversion through structure-guided protein engineering” (Proceedings of the National Academy of Sciences of the …, 2019).

Target: GcoA-F169A (Amycolatopsis sp., UniProt P0DPQ7, F169A)
Assay: H2O2 detection via HRP and Amplex Red (uncoupling reaction)
Type: biochemical, Amycolatopsis sp. ATCC 39116
Parameters: GST (N, cleaved yes); made in house; host or cells: E. coli Rosetta 2 (DE3)
Conditions: referenced to NADH consumed
Protocol: A colorimetric assay involving HRP and Amplex Red was used to quantify H2O2 in the reaction between GcoA-F169A GcoA/GcoB, NADH and guaiacol, syringol, or 3MC, as described in SI Appendix. […]
vi = Vmax[S]/(KM + [S]) (4) […]
The reaction of each aliquot was immediately quenched with 12.5
μL saturated ammonium sulfate, 7% v/v H2SO4 (pH 2.0) prior to loading onto the HPLC column. [Substrate] disappearance was referenced to GcoA (0.2 µM) and fit to a linear line to determine specific activity.
Data analysis. The consumption of NADH and subsequent production of formaldehyde and aromatic product were measured in triplicate and the error reported as ±1 standard deviation. To determine the statistical significance between NADH consumption and the products produced, the p-value was determined for all runs containing guaiacol, syringol, and 3MC. These values were calculated using two degrees of freedom, a tail value of two, and assuming a t-statistical value for unequal variances.
Detection of H2O2 via horseradish peroxidase (HRP) and Amplex Red assay. The reaction between 100 μM guaiacol or 3MC with 0.2 μM F169A/GcoB and 100 μM NADH in air-saturated buffer (25 mM HEPES, 50 mM NaCl, pH 7.5) was monitored continuously in a quartz cuvette, using the NADH consumption assay described above. The same thing was done for syringol, but with either 100 or 200 μM NADH. When there was no longer any change in the spectra, e.g., the reaction was completed, 100 μL was removed from the cuvette and pipetted into a 96-well microplate. A 5 mL solution containing 50 μL of 10 mM Amplex Red (prepared in DMSO and stored at -20 °C) and 100 μL of 10 U/mL HRP was made up in the above buffer. 100 μL of this was added to each of the wells with each reaction sample. The plate was incubated in the dark at room temperature for 30 min, at which point the absorbance at […]
572 nm was recorded by a Varioskan Lux microplate reader (Thermo Scientific). The absorbance was compared to a standard curve with 0-100 μM H2O2 to quantify the amount of peroxide produced in the reactions.
Purified protein was buffer exchanged into 10 mM HEPES pH 7.5 and concentrated to an A280 value of 12, as measured on a NanoDrop 2000 spectrophotometer (Thermo Fisher). Crystals of GcoA were grown with 2.4 M sodium malonate and 200 mM substrate, dissolved in 40% DMSO where necessary. Crystals were cryocooled directly in liquid N2 without further addition of cryoprotectants. All data were collected at Diamond Light Source (Harwell, UK). For each crystal, 1800 images were taken at 0.1o increments using the default wavelength of 0.9795Å on beamline i04. Data was captured on a Pilatus 6M-F detector. […]

Chain of GcoA-F169A (P0DPQ7 whole entry F169A): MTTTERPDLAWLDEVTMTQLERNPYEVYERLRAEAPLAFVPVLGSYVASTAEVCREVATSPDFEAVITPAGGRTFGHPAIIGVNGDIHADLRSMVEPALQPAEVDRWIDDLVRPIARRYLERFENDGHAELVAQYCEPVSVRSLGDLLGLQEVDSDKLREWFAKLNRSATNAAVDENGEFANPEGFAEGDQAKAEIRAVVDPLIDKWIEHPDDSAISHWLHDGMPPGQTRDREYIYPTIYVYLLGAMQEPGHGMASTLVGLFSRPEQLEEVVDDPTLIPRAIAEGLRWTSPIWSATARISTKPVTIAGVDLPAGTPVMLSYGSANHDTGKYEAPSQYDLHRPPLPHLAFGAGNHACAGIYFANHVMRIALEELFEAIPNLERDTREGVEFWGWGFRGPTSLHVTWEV

## COc1ccccc1O [guaiacol, 2-methoxyphenol]
100 µM substrate + 100 µM NADH
  % H2O2 produced: 3.7 ± 0.6%

## COc1cccc(O)c1O [3MC, 3-methoxycatechol]
100 µM substrate + 100 µM NADH
  % H2O2 produced: 17 ± 0.2%

## COc1cccc(OC)c1O [syringol, 2,6-dimethoxyphenol]
100 µM substrate + 100 µM NADH
  % H2O2 produced: 7.4 ± 0.03%
100 µM substrate + 200 µM NADH
  % H2O2 produced: 7.9 ± 0.5%
